{
  "source": "patent US20170128362A1",
  "about": "“APPLICATION OF LARGE-DOSE GLYCERINUM IN FREEZE-THAWING TOLERABLE LIPID EMULSION” (Shengyang Pharmaceutical University, priority 2014, published 2017)",
  "origin": "cited, not measured here",
  "conditions": "0.005% sodium oleate",
  "data": [
    {"smiles": "CCCCCCCC/C=C\\CCCCCCCC(=O)[O-].[Na+]", "note": "[sodium oleate]", "values": [
      {"measurement": "hemolysis", "value": 100, "unit": "%"}
    ]}
  ]
}
